# Data taken from US20240293432A1, “Use of Cannabidiol to Improve Rehabilitation in Lung Cancer” (priority 2023, published 2024).
# Read-outs that look alike come from different tables or passages of the source.
# Legend:
# [1] = tested on: LLC lung cancer cell line; assay: cells; type: cell-based, mouse
# [2] = tested on: lung tumor-bearing mice (luciferase expressing LLC cells); assay: Open field test, elevated plus maze and tumor growth in mice with orthotopic LLC lung tumors; type: in vivo, C57BL/6 mice
# Procedure: FIGS. 5A-5C depict the effects of CBD on behavior in lung tumor bearing mice. […] D-Luciferin (150 mg/kg) was delivered by IP injection 10 minutes prior to imaging. Vehicle or CBD (25 mg/kg) was delivered by oral gavage every alternate day and Open Field (FIG. 5B) and EPM (FIG. 5C) tests were performed. Significant differences between means were determined by ANOVA with Holm Sidack post hoc test.
# Effects of CBD on the behavior of lung tumor-bearing mice: To make a preliminary assessment of the effects of CBD on the behavior of lung tumor-bearing mice, a study was conducted which used the open field test and EPM to determine if behavioral deficiencies observed in FIGS. 4A-4C could be rescued. Lung tumors were initiated in C57BL/6 mice via intratracheal instillation of 5×10^5 luciferase expressing LLC cells (Perkin Elmer) and tumor growth was monitored using the Perkin Elmer In Vivo Imaging System (IVIS). Treatment groups were assigned on day 9 (FIG. 5A) to ensure each group (n=4) contained tumors of approximately the same size based on luminescence readings. CBD (25 mg/kg) or vehicle (2:1:18 parts ethanol:Tween-80:PBS) treatments by oral gavage were started on day 10 and repeated every alternate day, two hours prior to the beginning of behavioral testing. […] This is consistent with previous studies of CBD treatment in naïve mice. […] (FIG. 5B).
# This may indicate less interest in the corner zone and, therefore, less anxiety. […] The effects of CBD treatment in lung cancer can be investigated using additional tests to measure pain (cold plate, Von Frey, conflict avoidance) and endurance (treadmill) to discover how CBD dose and combination with cancer therapies can improve these outcomes.
# [3] = tested on: H1975 lung cancer cell line; assay: CellTiter Glo viability assay, drugs alone or combined with CBD; type: cell-based
# Procedure: Viability after treatment with each cancer drug was compared with and without CBD (*=p<0.05 Student's t test).
# Effects of CBD combination with Standard of Care drugs in lung cancer cells: A study was conducted which screened cannabinoids, including CBD, for their ability to synergize with FDA-approved anti-cancer drugs to reduce the viability of cancer cells in vitro. […] IC50 was calculated using GraphPad Prism (dose-response inhibition), and Combination Index (CI) was calculated using CompuSyn software. […] Because the major driver mutation in this cell line is known (KRAS), the study evaluated potential drug synergy between CBD and the G12D specific KRAS inhibitor MTRX1133.
# [4] = tested on: LLC flank tumor-bearing mice; assay: Open field test and elevated plus maze in mice with subcutaneous LLC flank tumors after chemotherapy; type: in vivo, C57BL/6 mice
# Procedure: FIGS. 4A-4C depict that the behavior of mice is altered by tumor growth and by chemotherapy indicating increased pain and anxiety. C57BL/6 mice were inoculated with 5×105 LLC1 on right flank on Day 0. Cisplatin or Osimertinib were administered in doses of 10 mg/kg by intraperitoneal injection on the days indicated. DMSO+sterile saline was used as a vehicle control. Behavior was assayed using the open field test and EPM according to the timeline depicted in FIG. 4A. The open field (FIG. 4B) and EPM (FIG. 4C) tests were recorded using AnyMaze software to track animal speed, movement, and location. Significant differences between means were determined by ANOVA with Holm Sidack post hoc test p<0.05.
# Alterations in behavior in tumor-bearing mice following chemotherapy treatment: To make a preliminary assessment of cancer and chemotherapy-derived symptoms (anxiety, reduced mobility, and pain) in mice, a study was conducted which used the syngeneic Lewis Lung Carcinoma (LLC) model of subcutaneous flank tumors. C57BL/6 mice were injected with 5×10^5 LLC cells on the right flank. Tumor-bearing mice were treated with Cisplatin, Osimertinib, or vehicle, as outlined in FIGS. 5A-5C. The study performed the open field test (a sensory motor test used to measure general activity level) and the elevated plus maze (EPM) (test for anxiety behavior) on tumor-bearing mice throughout the period of tumor growth and treatment (FIG. 4A). In these tests, reduced physical activity was used an indicator of increased pain, and decreases in both distances traveled and time spent mobile over the tumor growth period were observed. […] Overall, the mice spent very little time in the open arms regardless of time point or treatment group making the measure unreliable. […] One limitation of this model is the contribution of tumor location on the hind flank to decreased mobility. To overcome this limitation, future studies can use genetically engineered models of tumor growth in the lungs.
# [5] = 25 mg/kg oral gavage every alternate day
# [6] = LLC flank tumor mice, 10 mg/kg intraperitoneal
SMILES,"IC50 ([1]; Mus musculus, 48 hr, combinations with 10 μM CBD, read-out: IC50 (μM), cell viability reduction) [µM]","IC50 ([1]; Mus musculus, n=3, read-out: IC50 of CBD alone (FIG. 2 legend)) [µM]","Number of entries into the corner zone (open field) [2, 5]","Time mobile in the EPM [2, 5]","Time spent in the center zone (open field) [2, 5]","Time the animal's head was within the open center zone (EPM) [2, 5]","Distance travelled in the open field test ([2]; 25 mg/kg oral gavage every alternate day, initially)","Time mobile in the open field ([2]; 25 mg/kg oral gavage every alternate day, later as tumor growth progressed)","Tumor growth ([2]; CBD alone, 25 mg/kg oral gavage, IVIS luminescence)","IC50 ([3]; Homo sapiens, NCI-H1975, 48 h, read-out: IC50 (μM), cell viability reduction) [µM]","IC50 ([3]; Homo sapiens, NCI-H1975, read-out: IC50 of CBD alone (FIG. 2 legend)) [µM]","Anxiety compared to vehicle [4, 6]","Mobility compared to vehicle [4, 6]","Time spent in the open center zone (EPM) compared to vehicle [4, 6]","IC50 ([1]; 48 hr, combinations with 10 μM CBD, read-out: IC50 (μM), cell viability reduction) [µM]","IC50 ([3]; H1975, 48 hr, combinations with 10 μM CBD, read-out: IC50 (μM), cell viability reduction) [µM]","Anxiety compared to vehicle ([4]; mouse, in vivo, ip, 10 mg/kg)","IC50 ([3]; Homo sapiens, NCI-H1975, H1975, 48 hr, combinations with 10 μM CBD, read-out: IC50 (μM), cell viability reduction) [µM]"
"C=C(C)[C@@H]1CCC(C)=C[C@H]1c1c(O)cc(CCCCC)cc1O [CBD, Cannabidiol]",19,14.5,trending decrease,significant increases,significant increases,significant increases,no significant change,significant increases,significant reduction in tumor growth using CBD alone was not observed,19.5,21,,,,,,,
N.N.[Cl][Pt][Cl] [Cisplatin],,,,,,,,,,,,increased anxiety,greater reduction in mobility,significantly decreased,3.1,28,,
C=CC(=O)Nc1cc(Nc2nccc(-c3cn(C)c4ccccc34)n2)c(OC)cc1N(C)CCN(C)C [Osimertinib],,,,,,,,,,,,,,significantly decreased,,,increased anxiety,3.7
